Drawing on ChEMBL document CHEMBL3259798, “A novel Lipoprotein lipase (LPL) agonist rescues the enzyme from inhibition by angiopoietin-like 4 (ANGPTL4)” (Bioorg Med Chem Lett, 2014), this text covers Activity and fold change (FC) for six molecules.

Assay [1] has as its target T1, Lipoprotein lipase (Homo sapiens) (UniProt P06858).
T1 sequence (whole entry): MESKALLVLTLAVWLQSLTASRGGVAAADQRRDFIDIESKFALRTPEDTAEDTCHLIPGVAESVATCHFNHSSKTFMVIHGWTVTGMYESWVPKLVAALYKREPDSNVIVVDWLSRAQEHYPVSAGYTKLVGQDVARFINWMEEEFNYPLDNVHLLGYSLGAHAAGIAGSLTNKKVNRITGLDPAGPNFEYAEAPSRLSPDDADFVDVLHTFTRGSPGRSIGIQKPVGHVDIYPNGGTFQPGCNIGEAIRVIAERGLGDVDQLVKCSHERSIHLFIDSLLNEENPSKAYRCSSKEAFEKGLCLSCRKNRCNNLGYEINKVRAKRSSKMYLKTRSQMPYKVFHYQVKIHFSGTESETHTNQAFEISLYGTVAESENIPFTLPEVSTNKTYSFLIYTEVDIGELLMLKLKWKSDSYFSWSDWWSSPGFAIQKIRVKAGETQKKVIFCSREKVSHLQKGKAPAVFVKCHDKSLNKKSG
As to the kind of experiment: Agonist activity at lipoprotein lipase (unknown origin) using p-nitrophenylbutyrate as substrate by spectrophotometric analysis relative to control. Also on record: concentration or dose not given beside the values.

Assay [2] has as its target T1, Lipoprotein lipase (Homo sapiens). The assay can be described thus: Activation of lipoprotein lipase (unknown origin) assessed as reversal of ANGPTL4-mediated enzyme inhibition treated with ANGPTL4 for 30 mins followed by substrate addition measured after 20 mins by spectrophotometric analysis.
Assay [3] shares this target. As to the kind of experiment: Agonist activity at lipoprotein lipase (unknown origin) using p-nitrophenylbutyrate as substrate by spectrophotometric analysis.
Assay [4] shares this target. The assay can be described thus: Agonist activity at lipoprotein lipase (unknown origin) using p-nitrophenylbutyrate as substrate at 40 uM by spectrophotometric analysis.
Assay [5] has the same target. As to the kind of experiment: Agonist activity at lipoprotein lipase (unknown origin) using p-nitrophenylbutyrate as substrate by spectrophotometric analysis relative to NO-1886.

Activity calls are given as the source filed them. The calls are words filed in the database; no cut-off is given here.

Take `CC1(C(=O)NCCCn2cnc(Cl)c2)CC1(Br)Br` (configuration not stated): the Activity in assay [1] worked out at 122%.
As to `CCOP(=O)(Cc1ccc(C(=O)Nc2ccc(Br)cc2C#N)cc1)OCC`, the result in assay [2] was inactive. In assay [1], this molecule displayed an Activity of 170%.
In assay [1], `Cc1cn(CCCNC(=O)C2(C)CC2(Br)Br)cn1` (configuration not stated) came in with an Activity of 113%.
As to `CC1(C(=O)NCCCn2ccnc2)CC1(Cl)Cl` (configuration not stated), the Activity entry in assay [3] was “Dose-dependent effect”; in assay [2] it was “Dose-dependent effect”; in assay [1] it was 196%. Further, the outcome in assay [4] was Active.
As for `CC1(C)CC1(C(=O)NCCCn1ccnc1)c1ccc(F)cc1` (configuration not stated), the Activity entry was “Dose-dependent effect” in assay [2] and 342% in assay [1]. Moreover, in assay [5], the fold change (FC) was 2.
For the molecule `CC1(C(=O)NCCCN2CCOCC2)CC1(Br)Br` (configuration not stated), the Activity in assay [1] is 130%.
